The structures appear in SMILES notation.

T2 sequence (P48736 whole entry): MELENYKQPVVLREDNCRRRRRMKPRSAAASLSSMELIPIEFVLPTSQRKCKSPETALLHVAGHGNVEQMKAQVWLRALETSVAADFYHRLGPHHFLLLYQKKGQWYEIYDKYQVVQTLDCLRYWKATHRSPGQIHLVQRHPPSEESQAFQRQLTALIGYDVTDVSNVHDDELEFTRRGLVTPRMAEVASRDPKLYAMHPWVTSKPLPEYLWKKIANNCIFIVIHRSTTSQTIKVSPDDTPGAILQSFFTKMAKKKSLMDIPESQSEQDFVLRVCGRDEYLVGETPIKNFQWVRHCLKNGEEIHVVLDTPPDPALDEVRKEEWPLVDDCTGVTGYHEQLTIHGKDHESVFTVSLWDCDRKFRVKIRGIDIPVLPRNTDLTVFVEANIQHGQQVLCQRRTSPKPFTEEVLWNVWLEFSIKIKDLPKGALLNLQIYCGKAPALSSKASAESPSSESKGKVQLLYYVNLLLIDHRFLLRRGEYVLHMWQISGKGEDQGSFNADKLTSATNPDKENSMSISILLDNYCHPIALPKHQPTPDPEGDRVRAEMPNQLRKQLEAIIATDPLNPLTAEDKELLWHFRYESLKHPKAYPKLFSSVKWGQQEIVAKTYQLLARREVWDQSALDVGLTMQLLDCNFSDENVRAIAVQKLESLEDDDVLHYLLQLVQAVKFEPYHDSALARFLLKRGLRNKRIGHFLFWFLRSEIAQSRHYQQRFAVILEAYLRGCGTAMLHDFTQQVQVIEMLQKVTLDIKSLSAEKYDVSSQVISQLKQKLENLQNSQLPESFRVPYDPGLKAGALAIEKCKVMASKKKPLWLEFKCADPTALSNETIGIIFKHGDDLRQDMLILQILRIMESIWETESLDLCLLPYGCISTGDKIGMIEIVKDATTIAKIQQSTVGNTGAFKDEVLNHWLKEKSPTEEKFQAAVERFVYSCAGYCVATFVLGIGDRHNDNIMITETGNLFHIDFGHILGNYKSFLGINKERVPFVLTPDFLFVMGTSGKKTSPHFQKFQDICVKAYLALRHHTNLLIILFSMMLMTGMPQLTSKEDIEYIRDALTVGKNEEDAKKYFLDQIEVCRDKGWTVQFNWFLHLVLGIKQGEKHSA

The target of the first experiment is T1, PI3Kδ (Homo sapiens, UniProt O00329).
T1 construct: made in house
T1 sequence (O00329 whole entry): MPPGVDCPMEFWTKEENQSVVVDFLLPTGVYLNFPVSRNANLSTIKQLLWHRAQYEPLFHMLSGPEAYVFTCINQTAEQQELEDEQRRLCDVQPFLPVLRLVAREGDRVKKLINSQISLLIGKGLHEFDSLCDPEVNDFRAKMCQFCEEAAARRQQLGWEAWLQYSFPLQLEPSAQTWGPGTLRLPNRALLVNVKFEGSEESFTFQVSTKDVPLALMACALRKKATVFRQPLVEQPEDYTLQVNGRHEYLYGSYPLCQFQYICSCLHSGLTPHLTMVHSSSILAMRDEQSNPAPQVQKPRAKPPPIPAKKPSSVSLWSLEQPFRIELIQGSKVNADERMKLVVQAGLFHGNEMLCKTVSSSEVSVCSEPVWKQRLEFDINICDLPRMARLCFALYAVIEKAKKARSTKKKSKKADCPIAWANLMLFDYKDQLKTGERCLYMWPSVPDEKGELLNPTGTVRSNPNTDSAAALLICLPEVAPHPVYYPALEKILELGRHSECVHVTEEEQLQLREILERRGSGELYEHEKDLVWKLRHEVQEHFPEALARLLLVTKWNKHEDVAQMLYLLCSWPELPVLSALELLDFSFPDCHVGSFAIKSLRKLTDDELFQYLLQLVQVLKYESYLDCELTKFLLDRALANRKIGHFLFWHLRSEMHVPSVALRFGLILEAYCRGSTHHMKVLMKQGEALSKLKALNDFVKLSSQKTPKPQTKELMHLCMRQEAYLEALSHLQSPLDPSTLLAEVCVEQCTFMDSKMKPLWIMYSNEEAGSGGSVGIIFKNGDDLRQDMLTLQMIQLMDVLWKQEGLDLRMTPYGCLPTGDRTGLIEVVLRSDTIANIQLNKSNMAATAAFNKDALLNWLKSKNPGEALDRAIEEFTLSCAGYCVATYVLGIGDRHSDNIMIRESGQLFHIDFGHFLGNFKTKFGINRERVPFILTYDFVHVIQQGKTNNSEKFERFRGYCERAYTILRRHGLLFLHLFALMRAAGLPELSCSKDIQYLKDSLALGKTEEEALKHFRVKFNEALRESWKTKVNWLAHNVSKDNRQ
T1 sequence (P27986 whole entry partner): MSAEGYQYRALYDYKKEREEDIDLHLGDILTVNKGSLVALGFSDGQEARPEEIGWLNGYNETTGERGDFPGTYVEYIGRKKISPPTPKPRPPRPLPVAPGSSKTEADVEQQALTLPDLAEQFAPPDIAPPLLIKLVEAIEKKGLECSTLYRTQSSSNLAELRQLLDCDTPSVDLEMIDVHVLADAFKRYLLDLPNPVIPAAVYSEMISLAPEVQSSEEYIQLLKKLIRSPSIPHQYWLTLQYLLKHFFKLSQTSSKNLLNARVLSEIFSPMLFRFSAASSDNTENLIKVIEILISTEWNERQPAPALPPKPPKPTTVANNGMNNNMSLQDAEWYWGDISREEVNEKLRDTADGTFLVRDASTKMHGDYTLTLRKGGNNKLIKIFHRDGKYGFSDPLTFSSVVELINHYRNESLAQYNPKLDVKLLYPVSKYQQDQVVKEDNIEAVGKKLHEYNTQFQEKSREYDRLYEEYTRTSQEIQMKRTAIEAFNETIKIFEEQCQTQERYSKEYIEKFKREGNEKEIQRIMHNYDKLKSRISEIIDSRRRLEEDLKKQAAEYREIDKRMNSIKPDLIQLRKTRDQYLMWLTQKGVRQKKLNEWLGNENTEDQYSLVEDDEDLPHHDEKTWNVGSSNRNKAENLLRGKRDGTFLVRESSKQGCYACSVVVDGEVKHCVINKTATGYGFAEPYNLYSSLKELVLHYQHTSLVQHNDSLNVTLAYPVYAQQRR
Kind of experiment: TR-FRET enzymatic activity assay, PI3Kδ. To be noted: Table 2a; same assay. Format: biochemical.
`C[C@H](Nc1nc(N)nc(C(F)F)c1C#N)c1nc2c(F)cc(F)cc2c(=O)n1-c1cc[nH]n1` [Compound 187, (S)-2-amino-4-((1-(6,8-difluoro-4-oxo-3-(1H-pyrazol-3-yl)-3,4-dihydroquinazolin-2-yl)ethyl)amino)-6-(difluoromethyl)pyrimidine-5-carbonitrile] showed an IC50 of 0.006 µM.

`C[C@H](Nc1nc(N)nc(C(F)F)c1Cl)c1nc2cc(F)cc(F)c2c(=O)n1-c1cc[nH]n1` [Compound 233, (S)-2-(1-((2-amino-5-chloro-6-(difluoromethyl)pyrimidin-4-yl)amino)ethyl)-5,7-difluoro-3-(1H-pyrazol-3-yl)quinazolin-4(3H)-one] had an IC50 of 10 µM.

The next experiment concerns the target T2, PI3Kγ (Homo sapiens, UniProt P48736).
T2 construct: made in house
Description: TR-FRET enzymatic activity assay, PI3Kγ.
Details: not given
Format: biochemical. The protocol:
The compounds of formula (I) were characterized for their enzymatic activity against the PI3K isoforms. The activities were measured using a time-resolved fluorescence resonance energy transfer (TR-FRET) assay.
In turn, `C[C@H](Nc1nc(N)nc(N)c1Cl)c1nc2ccc(F)cc2c(=O)n1-c1cc[nH]n1` [Compound 111, (S)-2-(1-((2,6-diamino-5-chloropyrimidin-4-yl)amino)ethyl)-6-fluoro-3-(1H-pyrazol-3-yl)quinazolin-4(3h)-one] had an IC50 above 10 µM.

`C[C@H](Nc1nc(N)nc(N)c1Cl)c1nc2c(Cl)cc(F)cc2c(=O)n1-c1cc[nH]n1` [Compound 123, (S)-8-chloro-2-(1-((2,6-diamino-5-chloropyrimidin-4-yl)amino)ethyl)-6-fluoro-3-(1H-pyrazol-3-yl)quinazolin-4(3h)-one] had an IC50 above 10 µM.

The molecule `C[C@H](Nc1nc(N)nc(N)c1Cl)c1nc2cccc(F)c2c(=O)n1-c1cc[nH]n1` [Compound 151, (S)-2-(1-((2,6-diamino-5-chloropyrimidin-4-yl)amino)ethyl)-5-fluoro-3-(1H-pyrazol-3-yl)quinazolin-4(3H)-one] gave an IC50 above 10 µM.

Consider `C[C@H](Nc1nc(N)nc(N)c1Cl)c1nc2c(F)cccc2c(=O)n1-c1cc[nH]n1` [Compound 153, (S)-2-(1-((2,6-diamino-5-chloropyrimidin-4-yl)amino)ethyl)-8-fluoro-3-(1H-pyrazol-3-yl)quinazolin-4(3H)-one], for which the IC50 is above 10 µM.

Take `C[C@H](Nc1cc(N)nc(N)n1)c1nc2cccc(Cl)c2c(=O)n1-c1cc[nH]n1` [Compound 163, (S)-5-chloro-2-(1-((2,6-diaminopyrimidin-4-yl)amino)ethyl)-3-(1H-pyrazol-3-yl)quinazolin-4(3H)-one]: the half-maximal inhibitory concentration (IC50) is above 10 µM.

For `C[C@@H](Nc1nc(N)nc(N)c1Cl)c1nc2c(Cl)cc(F)cc2c(=O)n1-c1cc[nH]n1` [Compound 174, (R)-8-chloro-2-(1-((2,6-diamino-5-chloropyrimidin-4-yl)amino)ethyl)-6-fluoro-3-(1H-pyrazol-3-yl)quinazolin-4(3H)-one], the IC50 is above 10 µM.

Still in this experiment, the particulars now being: Table 2; TR-FRET, 2x Km ATP, 30 minutes at 25° C.; read-out: PI3Kγ IC50.
As to `C[C@H](Nc1ncnc(N)c1C#N)c1nc2cccc(Cl)c2c(=O)n1-c1cn[nH]c1` [Compound 2, (S)-4-amino-6-((1-(5-chloro-4-oxo-3-(1H-pyrazol-4-yl)-3,4-dihydroquinazolin-2-yl)ethyl)amino)pyrimidine-5-carbonitrile], the IC50 was 0.99 µM.

With `C[C@H](Nc1nc(N)nc(N)c1C#N)c1nc2cccc(Cl)c2c(=O)n1-c1cc[nH]n1` [Compound 16, (S)-2,4-diamino-6-((1-(5-chloro-4-oxo-3-(1H-pyrazoyl)-3,4-dihydroquinazolin-2-yl)ethyl)amino)pyrimidine-5-carbonitrile], the half-maximal inhibitory concentration (IC50) came to 0.051 µM.

For the molecule `N#Cc1c(N)nc(N)nc1N[C@H](c1nc2cccc(Cl)c2c(=O)n1-c1cc[nH]n1)C1CC1` [Compound 18, (S)-2,4-diamino-6-(((5-chloro-4-oxo-3-(1H-pyrazol-3-yl)-3,4-dihydroquinazolin-2-yl)(cyclopropyl)methyl)amino)pyrimidine-5-carbonitrile], the IC50 was found to be 0.19 µM.

`Nc1nc(N)c(Cl)c(N[C@H](c2nc3cccc(Cl)c3c(=O)n2-c2cc[nH]n2)C2CC2)n1` [Compound 20, (S)-5-chloro-2-(cyclopropyl((2,6-diamino-5-chloropyrimidin-4-yl)amino)methyl)-3-(1H-pyrazol-3-yl)quinazolin-4(3H)-one]: the IC50 stood at 5.9 µM.

Turning to `C[C@H](Nc1ncnc(N)c1C#N)c1nc2cccc(Cl)c2c(=O)n1-c1cc[nH]n1` [Compound 22, (S)-4-amino-6-((1-(5-chloro-4-oxo-3-(1H-pyrazol-3-yl)-3,4-dihydroquinazolin-2-yl)ethyl)amino)pyrimidine-5-carbonitrile], the IC50 was 0.99 µM.

For `Cc1nc(N)nc(N[C@H](c2nc3cccc(Cl)c3c(=O)n2-c2cc[nH]n2)C2CC2)c1C#N` [Compound 28, (S)-2-amino-4-(((5-chloro-4-oxo-3-(1H-pyrazol-3-yl)-3,4-dihydroquinazolin-2-yl)(cyclopropyl)methyl)amino)-6-methylpyrimidine-5-carbonitrile], the IC50 was found to be 0.27 µM.

Turning to `N#Cc1c(Cl)nc(N)nc1N[C@H](c1nc2cccc(Cl)c2c(=O)n1-c1cc[nH]n1)C1CC1` [Compound 63, (S)-2-amino-4-chloro-6-(((5-chloro-4-oxo-3-(1H-pyrazol-3-yl)-3,4-dihydroquinazolin-2-yl)(cyclopropyl)methyl)amino)pyrimidine-5-carbonitrile], the IC50 was determined as 1.3 µM.

For `C[C@H](Nc1nc(N)nc(N)c1Cl)c1nc2cccc(Cl)c2c(=O)n1-c1cc[nH]n1` [Compound 64, (S)-5-chloro-2-(1-((2,6-diamino-5-chloropyrimidin-4-yl)amino)ethyl)-3-(1H-pyrazol-3-yl)quinazolin-4(3H)-one], the IC50 is 1.2 µM.

`N#Cc1c(N)nc(N)nc1N[C@H](c1nc2c(Cl)cc(F)cc2c(=O)n1-c1cc[nH]n1)C1CC1` [Compound 125, (S)-2,4-diamino-6-(((8-chloro-6-fluoro-4-oxo-3-(1H-pyrazol-3-yl)-3,4-dihydroquinazolin-2-yl)(cyclopropyl)methyl)amino)pyrimidine-5-carbonitrile]: the IC50 stood at 0.63 µM.

Staying with this experiment, now noted: Table 2a; same assay; read-out: PI3Kγ IC50.
On to `Nc1nc(N)c(Cl)c(N[C@@H](c2nc3cccc(Cl)c3c(=O)n2-c2cc[nH]n2)C2CC2)n1` [Compound 160, (R)-5-chloro-2-(cyclopropyl((2,6-diamino-5-chloropyrimidin-4-yl)amino)methyl)-3-(1H-pyrazol-3-yl)quinazolin-4(3H)-one], for which the 50% inhibitory concentration (IC50) is above 10 µM.

With `C[C@H](Nc1nc(N)nc(N)c1Cl)c1nc2c(F)cc(F)cc2c(=O)n1-c1cc[nH]n1` [Compound 161, (S)-2-(1-((2,6-diamino-5-chloropyrimidin-4-yl)amino)ethyl)-6,8-difluoro-3-(1H-pyrazol-3-yl)quinazolin-4(3H)-one], the IC50 amounted to 4.4 µM.

Regarding `C[C@H](Nc1nc(N)nc(C(F)(F)F)c1C#N)c1nc2cccc(Cl)c2c(=O)n1-c1cc[nH]n1` [Compound 168, (S)-2-amino-4-((1-(5-chloro-4-oxo-3-(1H-pyrazol-3-yl)-3,4-dihydroquinazolin-2-yl)ethyl)amino)-6-(trifluoromethyl)pyrimidine-5-carbonitrile], the IC50 is above 10 µM.

On to `N#Cc1c(N[C@H](c2nc3cccc(Cl)c3c(=O)n2-c2cc[nH]n2)C2CC2)nc(N)nc1C(F)F` [Compound 171, (S)-2-amino-4-(((5-chloro-4-oxo-3-(1H-pyrazol-3-yl)-3,4-dihydroquinazolin-2-yl)(cyclopropyl)methyl)amino)-6-(difluoromethyl)pyrimidine-5-carbonitrile], for which the IC50 was 1.1 µM.

As to `N#Cc1c(N[C@H](c2nc3c(Cl)cc(F)cc3c(=O)n2-c2cc[nH]n2)C2CC2)nc(N)nc1C(F)F` [Compound 172, (S)-2-amino-4-(((8-chloro-6-fluoro-4-oxo-3-(1H-pyrazol-3-yl)-3,4-dihydroquinazolin-2-yl)(cyclopropyl)methyl)amino)-6-(difluoromethyl)pyrimidine-5-carbonitrile], the IC50 amounted to 3.5 µM.

Turning to `C[C@H](Nc1nc(N)nc(C(F)F)c1C#N)c1nc2c(Cl)cc(F)cc2c(=O)n1-c1cc[nH]n1` [Compound 173, (S)-2-amino-4-((1-(8-chloro-6-fluoro-4-oxo-3-(1H-pyrazol-3-yl)-3,4-dihydroquinazolin-2-yl)ethyl)amino)-6-(difluoromethyl)pyrimidine-5-carbonitrile], the IC50 was 1.3 µM.

As for `CC[C@H](Nc1nc(N)nc(C(F)F)c1C#N)c1nc2c(Cl)cc(F)cc2c(=O)n1-c1cc[nH]n1` [Compound 180, (S)-2-amino-4-((1-(8-chloro-6-fluoro-4-oxo-3-(1H-pyrazol-3-yl)-3,4-dihydroquinazolin-2-yl)propyl)amino)-6-(difluoromethyl)pyrimidine-5-carbonitrile], the concentration for half-maximal inhibition (IC50) was 7.8 µM.

Turning to `C[C@H](Nc1nc(N)nc(C(F)F)c1C#N)c1nc2c(F)cccc2c(=O)n1-c1cc[nH]n1` [Compound 186, (S)-2-amino-4-(difluoromethyl)-6-((1-(8-fluoro-4-oxo-3-(1H-pyrazol-3-yl)-3,4-dihydroquinazolin-2-yl)ethyl)amino)pyrimidine-5-carbonitrile], the IC50 is 4.3 µM.

As for `C[C@H](Nc1nc(N)nc(C(F)F)c1C#N)c1nc2c(F)cc(F)cc2c(=O)n1-c1cc[nH]n1` [Compound 187, (S)-2-amino-4-((1-(6,8-difluoro-4-oxo-3-(1H-pyrazol-3-yl)-3,4-dihydroquinazolin-2-yl)ethyl)amino)-6-(difluoromethyl)pyrimidine-5-carbonitrile], the IC50 was 2.3 µM.

In the case of `C[C@H](Nc1nc(N)nc(C(F)F)c1C#N)c1nc2cccc(F)c2c(=O)n1-c1cc[nH]n1` [Compound 191, (S)-2-amino-4-(difluoromethyl)-6-((1-(5-fluoro-4-oxo-3-(1H-pyrazol-3-yl)-3,4-dihydroquinazolin-2-yl)ethyl)amino)pyrimidine-5-carbonitrile], the IC50 was above 10 µM.

On to `C[C@H](Nc1nc(N)nc(C(F)F)c1C#N)c1nc2ccc(F)cc2c(=O)n1-c1cc[nH]n1` [Compound 193, (S)-2-amino-4-(difluoromethyl)-6-((1-(6-fluoro-4-oxo-3-(1H-pyrazol-3-yl)-3,4-dihydroquinazolin-2-yl)ethyl)amino)pyrimidine-5-carbonitrile], for which the 50% inhibitory concentration (IC50) was 8 µM.

Consider `C[C@H](Nc1nc(N)nc(C(F)F)c1Cl)c1nc2cc(F)cc(F)c2c(=O)n1-c1cc[nH]n1` [Compound 233, (S)-2-(1-((2-amino-5-chloro-6-(difluoromethyl)pyrimidin-4-yl)amino)ethyl)-5,7-difluoro-3-(1H-pyrazol-3-yl)quinazolin-4(3H)-one], for which the IC50 was above 10 µM.

`CC[C@H](Nc1nc(N)nc(N)c1Cl)c1nc2c(Cl)cc(F)cc2c(=O)n1-c1cc[nH]n1` [Compound 257, (S)-8-chloro-2-(1-((2,6-diamino-5-chloropyrimidin-4-yl)amino)propyl)-6-fluoro-3-(1H-pyrazol-3-yl)quinazolin-4(3H)-one]: the IC50 was above 10 µM.

Broadly, the IC50 is the point on the concentration scale where inhibition reaches its midpoint.

The values are drawn from patent US10308639B2, “Phosphatidylinositol 3-kinase inhibitors” (Gilead Sciences, Inc., priority 2014, dated 2019).
